According to article PMC11602654 (The Journal of General Physiology, 2024):

Tests used:
α1β2γ2L GABAA receptor = α1β2γ2L GABAA receptor (Rattus norvegicus, UniProt P62813+P63138); assay: two-electrode voltage clamp, concentration-response; format: cell-based
[1] = target: T1, β3(Q64R+G127T) homomeric GABAA receptor (Homo sapiens, UniProt P28472, G152T/Q89R); assay: as above; format: cell-based
T1 sequence (P28472 26-473 Q89R/G152T): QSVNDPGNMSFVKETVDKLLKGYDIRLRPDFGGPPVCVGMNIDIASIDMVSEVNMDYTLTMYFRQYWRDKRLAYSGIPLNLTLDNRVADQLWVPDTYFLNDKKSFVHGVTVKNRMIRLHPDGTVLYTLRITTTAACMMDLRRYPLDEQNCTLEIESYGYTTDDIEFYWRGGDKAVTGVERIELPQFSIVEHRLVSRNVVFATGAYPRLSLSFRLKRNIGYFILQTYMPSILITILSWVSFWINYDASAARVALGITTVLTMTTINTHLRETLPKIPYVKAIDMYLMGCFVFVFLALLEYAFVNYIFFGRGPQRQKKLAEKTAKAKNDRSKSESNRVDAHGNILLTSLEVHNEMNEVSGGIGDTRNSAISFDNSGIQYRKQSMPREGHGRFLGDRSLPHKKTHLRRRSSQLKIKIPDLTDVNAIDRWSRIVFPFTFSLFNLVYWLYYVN

SMILES	EC50 (α1β2γ2L GABAA receptor)	EC50 [1]
O=S(=O)(O)C1CCNCC1 [P4S, piperidine-4-sulfonic acid]	0.033 ± 0.012 mM	–
NCCc1c[nH]cn1 [histamine]	–	9 ± 0.5 mM
